Laboratory results as given in patent US10804000B2, “High efficiency continuous-flow production of radioisotopes” (priority 2016, dated 2020).

What was measured:
[1] = Pre-irradiation solubility tests of lanthanide complexes in the water capture matrix (neutron activation analysis of washes); format: physicochemical; details: for % Activity in wash 1: first pre-irradiation wash with 0.5 mL ultra-pure H2O, 153Sm at 103 keV, 166Ho at 81 keV; for % Activity in wash 1 / % Activity in wash 2: indicates solubility in capture matrix; for solubility in water: in words, from pre-irradiation washes; for % Activity in wash 2: second pre-irradiation wash with H2O
Description: The solubility of the lanthanide complexes in the water capture matrix was determined by mixing a few milligrams of the lanthanide-containing target solid thoroughly with 0.5 mL of ultra-pure H2O then separating the solution from the solid utilizing centrifugal filter tubes (EMD Millipore). A second wash of the solid was obtained using the same procedure. The solid and the washes were submitted for neutron activation analysis in order to determine the solubility of the lanthanide containing target in H2O.
Post irradiation, the samples were left to cool for a predetermined amount of time to allow any short-lived radioisotopes to decay, before being transferred to the laboratory for treatment and analysis. The capture matrix was filtered and separated from the solid in order to separate any recoiled radiolanthanide. The solid residue and capture matrix were collected for analysis of the activity of the radiolanthanide. The pre-irradiation solubility test washes along with standards were also prepared for analysis. The samples were analyzed for radiolanthanide activity using a High Purity Germanium detector (HPGe) at the representative gamma energy of the radiolanthanide of interest.
All the samples for a particular compound were irradiated as a group, along with standards for calibration purposes and direct comparisons of activities. In samples that were not treated post irradiation by separation (e.g. as in the case of target and capture matrix) the activity of the radiolanthanide is directly related to the total concentration of the corresponding lanthanide. The count rate measured in each sample was normalized to a single point in time to account for decay during measurements. Both pre-irradiation washes were collected to give an indication of the solubility of the lanthanide complex in the capture matrix (H2O). The second wash was obtained to determine if the lanthanide activity detected in the first wash was actually due to solubility of the lanthanide containing target or due to factors such as impurities or the presence of uncomplexed lanthanide that came off in the first wash. […] Radiolanthanides that recoiled out but reformed bonds with the solid compound would appear as retained as well. […] Activity in the capture matrix may also reflect dissolution of the target matrix rather than recoil.

[2] = Irradiation of ammonium molybdate phosphate powder, 99Mo activity in washes, target and capture matrix
Excerpt: Wash 1, Wash 2, and the irradiated molybdenum target were all analyzed for ^99Mo activity using gamma spectroscopy at the prominent ^99Mo peak of 141 KeV.
Post irradiation the capture matrix was separated from the irradiation target and washed an additional time to determine post irradiation solubility (wash 1).

Row | Substance | % Activity in wash 1 [1] | solubility in water [1] | % Activity in wash 2 [1] | further results
1 | Holmium 4-aminobenzoate [Compound 6] | 7.0 ± 1.6% | soluble in water | 7.7 ± 1.7% | 
2 | ammonium molybdate phosphate [Sample 2] |  |  |  | % Activity in wash 1 ([2]; 99Mo, sample 2: irradiated in contact with water capture matrix, additional wash post irradiation): 1.3%
3 | Holmium 8-hydroxyquinolinate [Compound 5] |  | low solubility in the first wash |  | 
4 | Samarium 8-hydroxyquinolinate [Compound 4] |  | low |  | 
5 | Samarium 4-aminobenzoate [Compound 2] | 27.3 ± 3.0% | soluble in water | 26.8 ± 2.9% | 
6 | ammonium molybdate phosphate [Sample 1] |  |  |  | % Activity in wash 1 ([2]; 99Mo, sample 1: powder irradiated 15 min at 8×10^11 n cm^−2 s^−1, contacted with water post irradiation): <1%; % Activity in wash 2 ([2]; 99Mo, sample 1: powder irradiated, contacted with water post irradiation): <1%; 99Mo activity detected in the capture matrix ([2]; sample 1, water contacted post irradiation): less than 1%
